The record followed here is ChEMBL document CHEMBL1150406, “Novel triterpenoid from Citrus aurantium L. possesses chemopreventive properties against human colon cancer cells” (Bioorg Med Chem, 2008).

The source made the active and inactive calls. No cut-off for these calls is given here.

The test system of series [1] is HT-29. The experiment in a line: Cell cycle arrest in human HT29 cells assessed as background aggregates and debris at 5 uM after 48 hrs by flow cytometry. The series is classed as functional.
The subject of series [2] is HT-29. The experiment in a line: Cytotoxicity against human HT29 cells at 2.5 uM after 48 hrs by MTT assay. The format is functional, cell-based. (Tetrazolium dyes change colour on reduction, which living cells bring about.)
Series [3] relates to HT-29. The experiment in a line: Cytotoxicity against human HT29 cells at 5 uM after 72 hrs by MTT assay. The series is classed as functional.
For series [4], the system named is HT-29. As to the kind of experiment: Cell cycle arrest in human HT29 cells by accumulation at G0/G1 phase at 5 uM after 48 hrs by flow cytometry. The format is functional.
Series [5] concerns HT-29. As to the kind of experiment: Cell cycle arrest in human HT29 cells by accumulation at S phase at 5 uM after 48 hrs by flow cytometry. The format is functional. On the technique in general: Flow cytometry measures light scatter and fluorescence of single cells or particles in a stream.
For series [6], the system named is HT-29. As to the kind of experiment: Cell cycle arrest in human HT29 cells by accumulation at G2/M phase at 5 uM after 48 hrs by flow cytometry. The format is functional.
For series [7], the system named is HT-29. The experiment in a line: Cell cycle arrest in human HT29 cells assessed as background aggregates and debris at 10 uM after 48 hrs by flow cytometry. The series is classed as functional.
Series [8] relates to HT-29. As to the kind of experiment: Cell cycle arrest in human HT29 cells by accumulation at G0/G1 phase at 10 uM after 48 hrs by flow cytometry. The format is functional.
In series [9] the test system is HT-29. As to the kind of experiment: Cell cycle arrest in human HT29 cells by accumulation at S phase at 10 uM after 48 hrs by flow cytometry. The series is classed as functional.
The subject of series [10] is HT-29. The experiment in a line: Cell cycle arrest in human HT29 cells by accumulation at G2/M phase at 10 uM after 48 hrs by flow cytometry. The series is classed as functional.
Series [11] can be described thus: Growth inhibition of monkey COS1 cells by flow cytometry. The series is classed as cell-based. The conditions noted are these: cos-1.
Series [12] deals with HT-29. As to the kind of experiment: Induction of apoptosis in human HT29 cells at 10 uM by nuclear staining method. The series is classed as functional, cell-based.
The subject of series [13] is HT-29. The experiment in a line: Cytotoxicity against human HT29 cells at 10 uM after 24 hrs by MTT assay. The series is classed as functional, cell-based.
Series [14] has as its system HT-29. As to the kind of experiment: Cytotoxicity against human HT29 cells after 48 hrs by MTT assay. The series is classed as functional, cell-based.

With `CC1(C)OC[C@@]2([C@@H](O)CC(=O)O)[C@H]3CC[C@@]4(C)[C@H](c5ccoc5)OC(=O)[C@H]5O[C@]54[C@]3(C)C(=O)C[C@@H]12` [ISOLIMONOIC ACID], the Activity in the series with HT-29 [1] amounted to 34.8%; in the series with HT-29 [3], 20%; with HT-29 [4] it was 91%; with HT-29 [5], 4%; in the series with HT-29 [6], 6.1%; in the series on HT-29 [7], 75.5%. For the same compound, the Activity with HT-29 [8] is 69.9%; with HT-29 [9], 12.7%; in the series with HT-29 [10] it was 17.4%; in series [11], “Not Active”. For the same compound, the result in the series on HT-29 [2] and in the series with HT-29 [12] was Active.

In the case of `CC(C)(O)[C@@H]1CC(=O)[C@]2(C)[C@H](CC[C@@]3(C)[C@H](C4=CC(O)OC4=O)OC(=O)[C@H]4O[C@]432)[C@]12COC(=O)C[C@@H]2O` (stereo partly specified) [ICHANEXIC ACID], the Activity is given as 42.9% in the series on HT-29 [1]; 20% with HT-29 [3]; 91.3% with HT-29 [4]; 4.1% in the series on HT-29 [5]; 8.7% in the series on HT-29 [6]; 75.1% in the series on HT-29 [7]. In addition, the Activity was 70.2% in the series with HT-29 [8], 6% in the series with HT-29 [9], 23.8% with HT-29 [10] and “Not Active” in series [11]. Moreover, the outcome in the series with HT-29 [13], in the series on HT-29 [14], in the series with HT-29 [2] and in the series with HT-29 [12] was Active.
